Read-outs that look alike come from different tables or passages of the source.
Key:
[1] = target: T1, OX1R (Homo sapiens, UniProt O43613); assay: Intracellular Calcium Transient Assay in OX1R-expressing CHO cells; format: cell-based
T1 construct: Open reading frames of OX1R, OX2R and GRP (control) receptor were inserted into a bicistronic retrovirus expression vector; expressed in transfected cells; host or cells: CHO cells harboring ecotropic retroviral receptor, infected with retrovirus and selected with puromycin
T1 sequence (O43613 1-425): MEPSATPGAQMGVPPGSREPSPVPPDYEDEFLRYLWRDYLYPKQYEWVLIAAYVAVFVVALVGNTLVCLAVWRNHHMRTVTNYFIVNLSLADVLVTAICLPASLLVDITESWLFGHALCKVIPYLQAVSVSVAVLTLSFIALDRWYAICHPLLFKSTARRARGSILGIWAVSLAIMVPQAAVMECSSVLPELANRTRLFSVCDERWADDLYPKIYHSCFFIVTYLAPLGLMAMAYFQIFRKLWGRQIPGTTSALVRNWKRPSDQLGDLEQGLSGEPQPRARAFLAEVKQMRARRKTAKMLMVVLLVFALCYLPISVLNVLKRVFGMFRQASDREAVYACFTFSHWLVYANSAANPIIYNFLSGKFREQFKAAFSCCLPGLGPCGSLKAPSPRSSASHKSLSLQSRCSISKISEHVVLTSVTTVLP
Protocol: (§1) DNA Construction: Open reading frames of OX1R, OX2R and GRP (control) receptor were inserted into a bicistronic retrovirus expression vector, pMXs-IRES-puror (pMXs-IP), which carried a FLAG™ epitope cDNA sequence at the beginning of the ORF sequences encoding their human polypeptides.
(§2) Transfection and retrovirus production: Transfection was carried out using FuGENE 6 (Roche Diagnostics Corp.) according to the manufacturer's recommendations. Retroviruse fluid was harvested after 48 hours post transfection.
(§3) Cell lines: To generate receptor expressing cells, CHO cells harboring ecotropic retroviral receptor were infected with a retroviral supernatant. After 24 hours post infection, the retrovirus supernatant was removed and infected cells were selected with 10 μg/ml of puromycin (Sigma-Aldrich, St. Louis, Mo.). […]
(§4) 0.5 ml aliquot of the cell suspension was stimulated by addition of 5 μl of compound dissolved in DMSO. Changes of [Ca^2+]i transients in cells were measured at RT by using CAF-110 Intracellular Ion Analyser (JASCO, Tokyo) with the excitation wave lengths of 340 nm and 380 nm and emission wavelength of 500 nm

[2] = target: T2, GRP receptor (Homo sapiens, UniProt P30550); assay: Intracellular Calcium Transient Assay in CHO cells expressing control GRP receptor; format: cell-based; details: cells expressing an unrelated Gq-coupled GPCR (GRP receptor)
T2 construct: Open reading frames of OX1R, OX2R and GRP (control) receptor were inserted into a bicistronic retrovirus expression vector; expressed in transfected cells; host or cells: CHO cells harboring ecotropic retroviral receptor, infected with retrovirus and selected with puromycin
T2 sequence (P30550 whole entry): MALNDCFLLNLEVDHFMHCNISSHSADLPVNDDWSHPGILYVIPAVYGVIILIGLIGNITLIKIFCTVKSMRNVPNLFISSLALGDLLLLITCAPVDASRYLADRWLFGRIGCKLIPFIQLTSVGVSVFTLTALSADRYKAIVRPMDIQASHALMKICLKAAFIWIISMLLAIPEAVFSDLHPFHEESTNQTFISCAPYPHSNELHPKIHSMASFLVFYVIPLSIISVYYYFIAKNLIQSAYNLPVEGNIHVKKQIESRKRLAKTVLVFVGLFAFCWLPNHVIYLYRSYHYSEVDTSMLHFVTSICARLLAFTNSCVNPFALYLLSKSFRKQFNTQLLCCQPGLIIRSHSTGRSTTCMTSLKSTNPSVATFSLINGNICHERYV
Protocol: as §1, §2, §3, §4

[3] = test system: No Receptor_CRE; assay: CRE reporter assay, no receptor control; format: cell-based
[4] = Metabolism in mouse CD-1 S9 fractions (phase I, phase I+II); format: in vitro ADME; details: for half-life at 2 μM: CD-1, mouse, S9 fractions (hepatocyte S9)
Protocol: Metabolism: 2 μM Yan7874 was incubated in 1 ml 0.1 M Tris/0.5% NaHCO3/3 mm MgCl2 solution with 1 mg mouse CD-1 S9 protein (In Vitro Technologies, Baltimore, Md.) at 37° C. Cofactors necessary for phase I and II metabolism were added as recommended by In Vitro Technologies (phase I: 1.7 mg/ml NADP, 7.8 mg/ml glucose-6-phophate, 6 U/ml glucose-6-phosphate dehydrogenase; phase II additionally add 1.9 mg/ml uridine 5′-diphospho-α-D-glucuronic acid and 100 μg/ml 3′-phosphoadenosine-5′-phophosulphate). Protein was precipitated by the addition of 1 volume of methanol. Samples in 50:50 buffer:methanol+0.1% added formic acid were analyzed as follows. An analytical method was developed to detect Yan7874 using LC/MS/MS. […] The fraction of parent compound remaining was plotted over time and a curve fit to the data. The time at which 50% of compound remains is designated the in vitro half-life.

[5] = target: T3, OX2R (Homo sapiens, UniProt O43614); assay: CRE reporter assay, OX2R; format: cell-based; parameters: expressed in transfected cells; host or cells: HEK293T cells, transient co-transfection
T3 sequence (O43614 1-444): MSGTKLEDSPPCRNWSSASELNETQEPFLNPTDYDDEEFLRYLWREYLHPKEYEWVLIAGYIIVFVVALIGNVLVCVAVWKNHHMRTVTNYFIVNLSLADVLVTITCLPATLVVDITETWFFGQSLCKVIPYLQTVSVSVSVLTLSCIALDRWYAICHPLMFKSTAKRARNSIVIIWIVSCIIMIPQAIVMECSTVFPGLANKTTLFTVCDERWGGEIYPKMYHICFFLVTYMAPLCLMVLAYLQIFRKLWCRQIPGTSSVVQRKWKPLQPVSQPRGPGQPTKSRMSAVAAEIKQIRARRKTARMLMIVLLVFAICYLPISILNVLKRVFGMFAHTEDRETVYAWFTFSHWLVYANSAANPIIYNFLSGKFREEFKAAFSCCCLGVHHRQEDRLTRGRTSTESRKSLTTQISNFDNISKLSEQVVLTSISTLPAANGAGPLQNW

## Cc1ccc(Cn2c(=N)n(CC(O)c3ccc(Cl)c(Cl)c3)c3ccccc32)cc1 (centres unmarked) [Compound 130699]
[1]
  Ca2+ response: weaker response
[2]
  Ca2+ response: no response
[3]
  Fold Induction, No Receptor_CRE: 0.797
[4]; 2 μM, mouse CD-1 S9, 37° C.
  stability in vitro using hepatocyte S9 fractions: relatively stable
[4]; Phase I+II, read-out: half-life for in vitro combined Phase I+II metabolism in S9 fractions
  half-life at 2 μM: 0.933 h
[4]; Phase I, read-out: half-life for in vitro Phase I metabolism in S9 fractions
  half-life at 2 μM: 1.13 h
[5]
  reporter activation in a distinct CRE reporter system: confirmed reporter activation
[5]; CRE reporter
  Fold Induction, OX2R_CRE: 5.1935
